Measured values as given in US12077503B2, “Substituted cyclic amides and their use as herbicides” (FMC CORPORATION, priority 2015, dated 2024).

Legend:
Assay in all cases: Test G Pre-Emergence Protocol
Assay type in all cases: in vivo
[1] = tested on: redroot pigweed (Amaranthus retroflexus); conditions: Amaranthus retroflexus, pre-emergence, 312 h, evaluated after 13 days; for pest or weed control at 15.625 g/ha: 15.625 g ai/ha; for pest or weed control at 15.625 g/ha / pest or weed control at 250 g/ha: read-out: Pigweed, Redroot damage rating (100=total damage to plant; 0=no damage to plant); for pest or weed control at 62.5 g/ha: 62.5 g ai/ha, 100=total damage to plant, 0=no damage to plant, read-out: plant damage rating, Pigweed, Redroot; for pest or weed control at 250 g/ha: 250 g ai/ha
How it was run: (§1)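 Visual injury (0–100) at day 13 after a single pre-emergence spray. Rates: 15.625, 62.5, 250 g/ha in acetone–water 50:50 with 0.5% Tween 20. Growth conditions: 24/16° C, 14 h light, 65% humidity.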

[2] = tested on: ivy-leaved morning glory (Ipomoea hederacea); conditions: Ipomoea, pre-emergence, 312 h, evaluated after 13 days; for pest or weed control at 15.625 g/ha: 15.625 g ai/ha, read-out: Morning-glory, Ivy-leaved damage rating (100=total damage to plant; 0=no damage to plant); for pest or weed control at 62.5 g/ha: 62.5 g ai/ha, 100=total damage to plant, 0=no damage to plant, read-out: plant damage rating, Morningglory, Ivy-leaved; for pest or weed control at 250 g/ha: 250 g ai/ha, read-out: Morningglory, Ivy-leaved damage rating (100=total damage to plant; 0=no damage to plant)
How it was run: as §1

[3] = tested on: barnyardgrass (Echinochloa crus-galli); conditions: Echinochloa crus-galli, pre-emergence, 312 h, evaluated after 13 days; for pest or weed control at 15.625 g/ha: 15.625 g ai/ha, read-out: Barnyard grass damage rating (100=total damage to plant; 0=no damage to plant); for pest or weed control at 62.5 g/ha: 62.5 g ai/ha, 100=total damage to plant, 0=no damage to plant, read-out: plant damage rating, Barnyardgrass; for pest or weed control at 250 g/ha: 250 g ai/ha, read-out: Barnyardgrass damage rating (100=total damage to plant; 0=no damage to plant)
How it was run: as §1

[4] = tested on: giant foxtail (Setaria faberi); conditions: Setaria faberi, pre-emergence, 312 h, evaluated after 13 days; for pest or weed control at 15.625 g/ha: 15.625 g ai/ha; for pest or weed control at 15.625 g/ha / pest or weed control at 250 g/ha: read-out: Foxtail, Giant damage rating (100=total damage to plant; 0=no damage to plant); for pest or weed control at 62.5 g/ha: 62.5 g ai/ha, 100=total damage to plant, 0=no damage to plant, read-out: plant damage rating, Foxtail, Giant; for pest or weed control at 250 g/ha: 250 g ai/ha
How it was run: as §1

corn (Zea mays) = conditions: Zea mays, pre-emergence, 312 h, evaluated after 13 days; for plant injury at 15.625 g/ha: 15.625 g ai/ha; for plant injury at 15.625 g/ha / plant injury at 250 g/ha: read-out: Corn damage rating (100=total damage to plant; 0=no damage to plant); for plant injury at 62.5 g/ha: 62.5 g ai/ha, 100=total damage to plant, 0=no damage to plant, read-out: plant damage rating, Corn; for plant injury at 250 g/ha: 250 g ai/ha
How it was run: as §1

[5] = tested on: velvetleaf (Abutilon theophrasti); conditions: Abutilon theophrasti, pre-emergence, 312 h, evaluated after 13 days; for pest or weed control at 15.625 g/ha: 15.625 g ai/ha; for pest or weed control at 15.625 g/ha / pest or weed control at 250 g/ha: read-out: Velvetleaf damage rating (100=total damage to plant; 0=no damage to plant); for pest or weed control at 62.5 g/ha: 62.5 g ai/ha, 100=total damage to plant, 0=no damage to plant, read-out: plant damage rating, Velvetleaf; for pest or weed control at 250 g/ha: 250 g ai/ha
How it was run: as §1

Compound	pest or weed control at 15.625 g/ha [1] [%]	pest or weed control at 62.5 g/ha [1] [%]	pest or weed control at 250 g/ha [1] [%]	pest or weed control at 15.625 g/ha [2] [%]	pest or weed control at 62.5 g/ha [2] [%]	pest or weed control at 250 g/ha [2] [%]	pest or weed control at 15.625 g/ha [3] [%]	pest or weed control at 62.5 g/ha [3] [%]	pest or weed control at 250 g/ha [3] [%]	pest or weed control at 15.625 g/ha [4] [%]	pest or weed control at 62.5 g/ha [4] [%]	pest or weed control at 250 g/ha [4] [%]	plant injury at 15.625 g/ha (corn (Zea mays)) [%]	plant injury at 62.5 g/ha (corn (Zea mays)) [%]	plant injury at 250 g/ha (corn (Zea mays)) [%]	pest or weed control at 15.625 g/ha [5] [%]	pest or weed control at 62.5 g/ha [5] [%]	pest or weed control at 250 g/ha [5] [%]
CN1C[C@@H](c2ccc(C(F)(F)F)cc2)[C@H](C(=O)Nc2ccccc2)C1=O (racemic) [Compound 1404]	0	0	20	0	10	20	0	20	70	0	70	80	0	0	0	0	0	0
CN1C[C@H](c2ccc3c(c2)CCO3)[C@@H](C(=O)Nc2cccc(F)c2F)C1=O (racemic) [Compound 1499]	–	0	0	0	0	100	0	80	90	0	80	80	0	0	80	0	0	30
CN1C[C@H](c2ccc3occc3c2)[C@@H](C(=O)Nc2cccc(F)c2F)C1=O (racemic) [Compound 1500]	0	0	80	0	–	20	30	90	90	60	80	80	0	0	30	0	0	20
Cc1c(NC(=O)[C@@H]2C(=O)N(C)C[C@H]2c2ccc(C(F)(F)F)cc2)ccc(F)c1F (racemic) [Compound 1502]	0	20	70	0	0	0	20	60	80	60	90	90	0	0	50	0	0	10
Cc1ccncc1NC(=O)[C@@H]1C(=O)N(C)C[C@H]1c1ccc(C(F)(F)F)cc1 (racemic) [Compound 1505]	0	0	0	0	–	0	0	0	20	0	10	30	0	0	0	0	0	0
CN1C[C@@H](c2ccc(C(F)(F)F)cc2)[C@H](C(=O)Nc2cc(C(F)(F)F)nn2C)C1=O (racemic) [Compound 1510]	–	0	0	0	0	0	0	0	0	0	0	0	0	0	0	0	0	0
CN1C[C@@H](c2ccc(C(F)(F)F)cc2)[C@H](C(=O)Nc2ccno2)C1=O (racemic) [Compound 1513]	0	0	0	0	0	0	0	0	0	0	0	0	0	0	0	0	0	0
CN1C[C@@H](c2ccc(C(F)(F)F)cc2)[C@H](C(=O)Nc2ncc(Br)cn2)C1=O (racemic) [Compound 1514]	0	0	0	0	0	0	0	0	0	0	0	0	0	0	0	0	0	0
Cc1cscc1NC(=O)[C@@H]1C(=O)N(C)C[C@H]1c1ccc(C(F)(F)F)cc1 (racemic) [Compound 1526]	0	50	70	10	–	0	20	60	80	30	50	90	0	0	10	0	0	0
